Experimental data: patent US12109176B1, “Effect of glycerol on biofilm forming bacteria and fungi that changes the microbes sensitivity to pro and anti-biofilm non-toxic, non-bonded plasma amino acids and amino acid derivatives” (priority 2023, dated 2024)
Entries after “also recorded” stand apart in the source; their conditions may differ.

How the values were obtained:
[1] = system: fungal biofilm (C. albicans); assay: Fungal biofilm inhibition assay; format: cell-based, Candida albicans
Method: (§1) Two types of biofilm assays were performed: an inhibition assay and a disruption assay. The inhibition assay assesses the compound's ability to prevent biofilm development, while the disruption assay assesses the compound's ability to break up an existing mature biofilm.
(§2) All bacterial biofilm solutions were prepared in Tryptic Soy Broth (TSB), supplemented with 1% glucose (henceforth referred to as TSB-G). All subsequent procedures were performed in a manner that maintained sterility. A solution of each amino acid or an amino acid derivative to be tested was prepared in weight to volume concentrations ranging from 0.1-5.0%. Amino acids and amino acid derivatives were also tested in combinations. Compound solutions were homogenized with gentle agitation in the dark (4° C., 24 hours) before use.
(§3) 32 Amino acids and 2 amino acid derivatives of the amino acid serine that occur freely in human blood were tested. […] 31 of the 32 amino acids that were tested were the L-Isomers. Glycine has no stereoisomers. The 2 amino acid derivatives, ethanolamine and phosphoethanolamine were also tested. All biofilm assays were performed using 384-well non-tissue culture-treated polystyrene plates. The fungal species tested are as follows: Candida albicans, Candida guilliermondii, Candida parapsilosis, Candida glabrata, Candida tropicalis and Candida dubliniensis. The bacterial species tested are as follows: Staphylococci (standard wild type and methicillin-resistant strain USA300), Escherichia coli, Pseudomonas aeruginosa and Staphylococcus epidermidis.
(§4) Fungal strains were streaked on Yeast Peptone Dextrose (YPD) agar plates and incubated at 30° C. for 48 hours. A single colony from each strain to be tested was inoculated into YPD broth and grown for 12 hours at 30° C., shaking at 225 rpm. […] The cells were allowed to adhere to the plate for 90 minutes at 37° C. with shaking (350 rpm). […] The plate was further incubated for 24 hours at 37° C. with shaking (350 rpm). Media was carefully aspirated and the biofilm was measured by optical density at 600 nm. […] The cells were allowed to adhere to the plate for 90 minutes at 37° C. with shaking (350 rpm). […] The plate was further incubated for 24 hours at 37° C. with shaking (350 rpm). […] The plate was further incubated for 24 hours at 37° C. with shaking (350 rpm). Media was carefully aspirated, and the biofilm was measured by optical density at 600 nm.

[2] = system: fungal biofilm (C. albicans); assay: Fungal biofilm disruption assay; format: cell-based, Candida albicans
Method: as §1, §2, §3, §4

[3] = system: bacterial (S. aureus) biofilm; assay: Bacterial biofilm inhibition assay; format: cell-based, Staphylococcus aureus
[4] = system: bacterial (S. aureus) biofilm; assay: Bacterial biofilm disruption assay; format: cell-based, Staphylococcus aureus
Method: as §1, §2, §3
(§5) Bacterial strains were streaked on Blood Agar plates (5% sheep blood in Tryptic Soy Broth) and incubated at 37° C. for 24 hours. A single colony from each strain to be tested was inoculated in a TSB broth and grown for 12 hours, at 37° C. with shaking (225 rpm). For the bacterial biofilm inhibition assays, 1 μL of saturated overnight cell culture was added to either 80 μL of TSB-G, or TSB-G supplemented with the amino acid compound solution to be tested, in a 384-well plate. The cells were allowed to adhere to the plate for 60 minutes at 37° C. without shaking. The media was carefully aspirated and 80 μL of TSB-G, or TSB-G supplemented with the amino acid compound solution was added to the plate. The plate was further incubated for 24 hours at 37° C. without shaking. Media was carefully aspirated and the biofilm was measured by optical density at 600 nm. Eight or twelve replicates were performed for each tested condition and the reported values are normalized to the control (TSB-G media only). For the bacterial biofilm disruption assays, 80 µL of TSB-G was added to the plate, along with 1 μL of overnight cell culture. The cells were allowed to adhere to the plate for 60 minutes at 37° C. with no shaking. The media was carefully aspirated and 80 μL of TSB-G was added to the plate. The plate was further incubated for 24 hours at 37° C. with no shaking. Media was carefully aspirated from the mature biofilm and 80 μL of TSB-G, or TSB-G supplemented with the amino acid to be tested, was gently added to the plate. The plate was further incubated for 24 hours at 37° C. without shaking. Media was aspirated and the biofilm was measured by optical density at 600 nm. Twelve replicates were performed for each tested condition and the reported values are normalized to the control (TSB-G media only).

[5] = system: bacterial (S. aureus) biofilm and fungal biofilm (C. albicans); assay: Biofilm inhibition assay, bacterial and fungal taken together; format: cell-based
[6] = system: bacterial (S. aureus) biofilm and fungal biofilm (C. albicans); assay: Biofilm disruption assay, bacterial and fungal taken together; format: cell-based
Method: as §1, §2, §3, §4
as §5, with “plate.” for “plate. The plate was further incubated for 24 hours at 37° C. without shaking. Media was aspirated and the biofilm was measured by optical density at 600 nm. Twelve replicates were performed for each tested condition and the reported values are normalized to the control (TSB-G media only).”

bacterial biofilm = assay: In vitro testing on bacterial biofilm (inhibition and/or disruption); format: cell-based; conditions: in vitro testing
fungal biofilm = assay: In vitro testing on fungal biofilm (inhibition and/or disruption); format: cell-based; conditions: in vitro testing
Method: as §1, §2, §3, §4

[7] = system: bacterial and fungal biofilm; assay: In vitro testing on bacterial and fungal biofilm (assay not told apart); format: cell-based; conditions: for effect on bacterial and fungal biofilm (in words): in vitro testing; for concentration of maximum (ideal) antibiofilm effect: tested on its own, without glycerol
Method: as §1, §2, §3, §4
as §5, with “plate.” for “plate. The plate was further incubated for 24 hours at 37° C. without shaking. Media was aspirated and the biofilm was measured by optical density at 600 nm. Twelve replicates were performed for each tested condition and the reported values are normalized to the control (TSB-G media only).”

[8] = Table F, in the presence of a sufficient concentration of glycerol
[9] = Table D, bacterial and fungal biofilm

Compound | Reduce or Inhibit F Biofilm (squares: Inhibition Biofilm Assay) ([1]; Table D, 0.1 to 5.0%) | Reduce or Inhibit F Biofilm (squares: Inhibition Biofilm Assay) [1, 8] | Reduce or Inhibit F Biofilm (dots: Disruption Biofilm Assay) ([2]; Table D, 0.1 to 5.0%) | Reduce or Inhibit F Biofilm (dots: Disruption Biofilm Assay) [2, 8] | Reduce or Inhibit B Biofilm (squares: Inhibition Biofilm Assay) ([3]; Table D, 0.1 to 5.0%) | Reduce or Inhibit B Biofilm (squares: Inhibition Biofilm Assay) [3, 8] | Reduce or Inhibit B Biofilm (dots: Disruption Biofilm Assay) ([4]; Table D, 0.1 to 5.0%) | Reduce or Inhibit B Biofilm (dots: Disruption Biofilm Assay) [4, 8] | Reduce Both (squares: Inhibition Biofilm Assay) [5, 9] | Reduce Both (squares: Inhibition Biofilm Assay) [5, 8] | Reduce Both (dots: Disruption Biofilm Assay) [6, 9] | Reduce Both (dots: Disruption Biofilm Assay) [6, 8] | effect on bacterial biofilm (in words) (bacterial biofilm) | effect on fungal biofilm (in words) (fungal biofilm) | effect on bacterial and fungal biofilm (in words) [7] | concentration of maximum (ideal) antibiofilm effect [7] | ideal concentration for antibiofilm effect ([7]; in the absence of glycerol on in vitro testing) | effect on bacterial and fungal biofilm (in words) ([7]; listed as Aspartic acid)
N[C@@H](CS)C(=O)O [Cysteine, L-cysteine] | ▪▪ (Two squares [ie. ▪▪] signifies a major effect (greater than about 50%), on the Inhibition Biofilm Assay) | ▪▪ (Two squares [ie. ▪▪] signifies a major effect (greater than about 50%), on the Inhibition Biofilm Assay) | ●● (Two dots [ie. ●●] signifies a major effect (greater than about 50%), on the Disruption Biofilm Assay) | ●● (Two dots [ie. ●●] signifies a major effect (greater than about 50%), on the Disruption Biofilm Assay) | ▪▪ (Two squares [ie. ▪▪] signifies a major effect (greater than about 50%), on the Inhibition Biofilm Assay) | ▪▪ (Two squares [ie. ▪▪] signifies a major effect (greater than about 50%), on the Inhibition Biofilm Assay) | ●● (Two dots [ie. ●●] signifies a major effect (greater than about 50%), on the Disruption Biofilm Assay) | ●● (Two dots [ie. ●●] signifies a major effect (greater than about 50%), on the Disruption Biofilm Assay) | ▪▪ (Two squares [ie. ▪▪] signifies a major effect (greater than about 50%), on the Inhibition Biofilm Assay) | ▪▪ (Two squares [ie. ▪▪] signifies a major effect (greater than about 50%), on the Inhibition Biofilm Assay) | ●● (Two dots [ie. ●●] signifies a major effect (greater than about 50%), on the Disruption Biofilm Assay) | ●● (Two dots [ie. ●●] signifies a major effect (greater than about 50%), on the Disruption Biofilm Assay) | antibacterial biofilm effect | antifungal biofilm effects | potent antibiofilm effect; also recorded: strong antibiofilm effect; also recorded: activity against both bacterial and fungal biofilm | 0.5% | – | –
N[C@@H](CC(=O)O)C(=O)O [Aspartic Acid, L-aspartic acid] | ▪▪ (Two squares [ie. ▪▪] signifies a major effect (greater than about 50%), on the Inhibition Biofilm Assay) | ▪▪ (Two squares [ie. ▪▪] signifies a major effect (greater than about 50%), on the Inhibition Biofilm Assay) | ●● (Two dots [ie. ●●] signifies a major effect (greater than about 50%), on the Disruption Biofilm Assay) | ●● (Two dots [ie. ●●] signifies a major effect (greater than about 50%), on the Disruption Biofilm Assay) | ▪▪ (Two squares [ie. ▪▪] signifies a major effect (greater than about 50%), on the Inhibition Biofilm Assay) | ▪▪ (Two squares [ie. ▪▪] signifies a major effect (greater than about 50%), on the Inhibition Biofilm Assay) | ●● (Two dots [ie. ●●] signifies a major effect (greater than about 50%), on the Disruption Biofilm Assay) | ●● (Two dots [ie. ●●] signifies a major effect (greater than about 50%), on the Disruption Biofilm Assay) | ▪▪ (Two squares [ie. ▪▪] signifies a major effect (greater than about 50%), on the Inhibition Biofilm Assay) | ▪▪ (Two squares [ie. ▪▪] signifies a major effect (greater than about 50%), on the Inhibition Biofilm Assay) | ●● (Two dots [ie. ●●] signifies a major effect (greater than about 50%), on the Disruption Biofilm Assay) | ●● (Two dots [ie. ●●] signifies a major effect (greater than about 50%), on the Disruption Biofilm Assay) | antibacterial biofilm effect | antifungal biofilm effects | very active against both bacterial and fungal biofilm | 0.5% | 0.5 g % | strong effect on biofilm-forming bacteria and fungi in reducing biofilm formation
